Among the data in patent publication US9567326B2, “Pyrimidine compounds for the treatment of cancer” (THE UNIVERSITY OF NORTH CAROLINA AT CHAPEL HILL, priority 2012, dated 2017) are IC50 values, retold here.

Broadly, the IC50 is the point on the concentration scale where inhibition reaches its midpoint.

The target of this assay is T1, Mer (Homo sapiens, UniProt Q12866).
T1 sequence (Q12866 21-999): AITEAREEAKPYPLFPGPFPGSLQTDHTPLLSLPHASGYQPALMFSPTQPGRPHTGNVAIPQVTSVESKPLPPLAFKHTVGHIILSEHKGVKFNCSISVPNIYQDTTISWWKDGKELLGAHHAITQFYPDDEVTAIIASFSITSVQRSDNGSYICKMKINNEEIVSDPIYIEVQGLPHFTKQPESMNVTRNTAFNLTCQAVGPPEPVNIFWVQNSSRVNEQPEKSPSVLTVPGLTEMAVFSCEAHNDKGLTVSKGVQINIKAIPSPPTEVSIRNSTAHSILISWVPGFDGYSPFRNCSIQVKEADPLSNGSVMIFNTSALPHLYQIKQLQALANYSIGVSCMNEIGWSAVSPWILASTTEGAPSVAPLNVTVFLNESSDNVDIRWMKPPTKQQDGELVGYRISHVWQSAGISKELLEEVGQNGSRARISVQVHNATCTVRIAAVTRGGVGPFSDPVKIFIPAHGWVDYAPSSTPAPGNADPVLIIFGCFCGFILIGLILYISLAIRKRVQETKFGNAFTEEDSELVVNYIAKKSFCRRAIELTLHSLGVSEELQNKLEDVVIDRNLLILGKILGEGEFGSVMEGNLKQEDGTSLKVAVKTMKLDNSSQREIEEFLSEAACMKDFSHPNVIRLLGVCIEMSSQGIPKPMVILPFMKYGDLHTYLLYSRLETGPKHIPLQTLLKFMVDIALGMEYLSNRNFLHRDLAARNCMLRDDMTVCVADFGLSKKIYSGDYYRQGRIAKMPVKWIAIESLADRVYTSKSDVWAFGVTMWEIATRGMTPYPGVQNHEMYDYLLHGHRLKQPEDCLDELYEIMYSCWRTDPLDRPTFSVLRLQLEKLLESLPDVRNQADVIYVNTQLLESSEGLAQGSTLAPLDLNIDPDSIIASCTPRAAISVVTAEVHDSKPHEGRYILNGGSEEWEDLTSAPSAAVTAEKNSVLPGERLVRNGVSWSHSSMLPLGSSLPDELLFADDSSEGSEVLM
As to the kind of experiment: Mer IC50. It counts as biochemical.

`CCCCNc1ncc(-c2ccc(C(=O)NC3CCN(C(=O)OC(C)(C)C)CC3)cn2)c(NC2CCC(O)CC2)n1` (centres unmarked) [UNC1898A]: the IC50 (Table 3 (General Procedure C compounds)) is < 10 nM.

In the case of `CCCCNc1ncc(-c2cncc(N)n2)c(N[C@H]2CC[C@H](O)CC2)n1` [UNC3118A], under “Table 7 (General Procedure G compounds)”, the IC50 was < 10 nM.
